According to PubChem BioAssay (NCI):
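Five compound concentrations were applied to cells in 96-well plates for 48 hours; endpoints were derived by simple linear interpolation of the resulting dose-response curve. GI50 marks 50% less growth. TGI: total growth inhibition.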

Legend:
Experiment in all cases: inhibition of tumour cell growth, NCI panel, 48 h
HL-60(TB) leukemia = tested on: HL-60(TB) leukemia
MCF7 breast = tested on: MCF7 breast
SF-268 CNS = tested on: SF-268 CNS
HCC-2998 colon = tested on: HCC-2998 colon
OVCAR-4 ovarian = tested on: OVCAR-4 ovarian
UO-31 renal = tested on: UO-31 renal
SK-MEL-28 melanoma = tested on: SK-MEL-28 melanoma
786-0 renal = tested on: 786-0 renal
HOP-92 NSCLC = tested on: HOP-92 NSCLC
HS 578T breast = tested on: HS 578T breast

Compound	GI50 (HL-60(TB) leukemia) [µM]	TGI (HL-60(TB) leukemia) [µM]	GI50 (MCF7 breast) [µM]	TGI (MCF7 breast) [µM]	GI50 (SF-268 CNS) [µM]	TGI (SF-268 CNS) [µM]	GI50 (HCC-2998 colon) [µM]	TGI (HCC-2998 colon) [µM]	GI50 (OVCAR-4 ovarian) [µM]	TGI (OVCAR-4 ovarian) [µM]	GI50 (UO-31 renal) [µM]	TGI (UO-31 renal) [µM]	GI50 (SK-MEL-28 melanoma) [µM]	TGI (SK-MEL-28 melanoma) [µM]	GI50 (786-0 renal) [µM]	TGI (786-0 renal) [µM]	GI50 (HOP-92 NSCLC) [µM]	TGI (HOP-92 NSCLC) [µM]	GI50 (HS 578T breast) [µM]	TGI (HS 578T breast) [µM]
COc1ccc(-n2cc(-c3ccc(OC)c(OC)c3)[nH]c2=O)cc1	> 100	> 100	> 100	> 100	> 100	> 100	> 100	> 100	> 100	> 100	> 100	> 100	> 100	> 100	> 100	> 100	> 100	> 100	> 100	> 100
Cc1cccc(C2NC(=O)c3ccccc3N2)c1 (stereo not given)	–	> 27.2	–	> 100	–	> 100	–	> 100	–	> 100	–	> 100	–	> 100	–	> 100	–	> 100	–	65.1
COc1c2ccoc2nc2c(OC)c(OCC(O)C(C)(C)O)ccc12 (stereo not given)	–	> 100	–	> 100	–	> 100	–	> 100	–	> 100	–	> 100	–	> 100	–	> 100	–	> 100	–	> 100
CC1=NN(c2cccc(Cl)c2)C(=O)/C1=C\c1cn(CC(O)CN2CCCCC2)c2ccccc12 (stereo not given)	2.89	14.4	6.47	21.5	10.1	24.9	6.12	19.2	13.3	28.1	1.73	7.12	1.82	3.47	7.46	20.8	14.8	38	6.14	33.6
COc1cc(/C=N/NC(=O)c2cnn3c2NC(c2ccccc2)C3)ccc1OC1CCCC1 (stereo not given)	0.384	3.93	0.373	4.07	1.88	13.1	3.19	19.7	2.01	7.75	1.22	6.59	1.25	9.15	0.639	3.73	0.684	3.69	0.705	4.14
COc1ccc(-c2ccc(C3CC(c4ccccc4)=NN3)o2)c([N+](=O)[O-])c1 (stereo not given)	24.9	64.8	31.8	> 100	37.8	> 100	25.5	58.5	43.5	> 100	> 100	> 100	> 100	> 100	60.6	> 100	24.8	68.2	43	> 100
CSc1nc(Nc2cccc(NC(=O)CCl)c2)c(C#N)c(-c2cccc([N+](=O)[O-])c2)n1	1.82	6.48	0.74	2.44	2.24	5.72	2.07	4.37	2.06	6.77	1.62	5.73	2.15	4.28	2.94	43.7	1.92	7.07	3.21	30.7
N#C/C(=C\c1ccc2[nH]ccc2c1)C(=O)NCCCCNC(=O)/C(C#N)=C/c1ccc2[nH]ccc2c1	–	> 31.6	–	> 10	–	> 31.6	–	> 31.6	–	> 31.6	–	> 31.6	–	> 31.6	–	> 31.6	–	> 31.6	–	> 10
